The results in this text go back to article PMC6222789, “CF3-Substituted Mollugin 2-(4-Morpholinyl)-ethyl ester as a Potential Anti-inflammatory Agent with Improved Aqueous Solubility and Metabolic Stability” (Molecules : A Journal of Synthetic Chemistry and Natural …, 2018).

The IC50 is the concentration at which inhibition is half-maximal.

This experiment concerns the target T1, hERG channel (Homo sapiens, UniProt Q12809).
T1 construct: purchased Invitrogen PV5365
Nature of the experiment: hERG channel binding assay (fluorescence polarization). As for the experimental part:
hERG channel binding assay was performed using Invitrogen’s hERG Fluorescence Polarization Assay kit (PV5365) with Synergy Neo plate reader (BioTek, Winooski, VT, USA). The binding assay was carried out according to the kit manufacturer’s instructions.
(In general: The hERG channel carries a current that helps repolarise heart muscle cells.)

T1 sequence (Q12809 whole entry): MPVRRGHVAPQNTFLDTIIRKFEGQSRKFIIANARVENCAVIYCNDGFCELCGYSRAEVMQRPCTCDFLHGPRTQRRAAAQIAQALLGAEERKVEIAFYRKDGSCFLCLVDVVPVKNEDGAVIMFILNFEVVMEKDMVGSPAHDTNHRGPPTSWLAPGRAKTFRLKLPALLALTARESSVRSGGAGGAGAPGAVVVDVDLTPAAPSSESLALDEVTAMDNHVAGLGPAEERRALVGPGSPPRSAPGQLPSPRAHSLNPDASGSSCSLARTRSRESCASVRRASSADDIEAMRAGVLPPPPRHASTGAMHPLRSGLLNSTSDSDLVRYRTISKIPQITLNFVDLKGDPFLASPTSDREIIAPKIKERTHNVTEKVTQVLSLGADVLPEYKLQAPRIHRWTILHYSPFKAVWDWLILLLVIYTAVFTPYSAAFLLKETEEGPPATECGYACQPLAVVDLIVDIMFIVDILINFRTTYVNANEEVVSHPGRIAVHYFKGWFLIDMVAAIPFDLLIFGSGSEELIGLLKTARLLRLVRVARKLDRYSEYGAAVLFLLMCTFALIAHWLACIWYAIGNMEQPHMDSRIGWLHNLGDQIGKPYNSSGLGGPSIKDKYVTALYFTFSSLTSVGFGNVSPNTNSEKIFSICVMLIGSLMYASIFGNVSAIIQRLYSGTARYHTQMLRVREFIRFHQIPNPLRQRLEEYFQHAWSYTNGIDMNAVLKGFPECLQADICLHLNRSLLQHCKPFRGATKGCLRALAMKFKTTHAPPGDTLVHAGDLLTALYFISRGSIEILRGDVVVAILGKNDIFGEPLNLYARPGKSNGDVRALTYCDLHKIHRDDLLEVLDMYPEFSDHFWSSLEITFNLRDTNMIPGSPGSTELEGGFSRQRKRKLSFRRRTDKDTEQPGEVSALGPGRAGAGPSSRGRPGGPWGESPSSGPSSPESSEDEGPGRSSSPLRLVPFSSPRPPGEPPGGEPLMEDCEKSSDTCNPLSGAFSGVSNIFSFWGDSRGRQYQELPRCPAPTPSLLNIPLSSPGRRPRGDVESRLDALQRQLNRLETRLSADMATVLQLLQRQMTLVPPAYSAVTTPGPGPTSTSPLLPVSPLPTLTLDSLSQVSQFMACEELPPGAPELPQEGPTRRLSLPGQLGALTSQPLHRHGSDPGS

Take `CC1(C)C=Cc2c(C(=O)OCCN3CCOCC3)c(O)c3ccccc3c2O1` [6d, 2-Morpholinoethyl 6-hydroxy-2,2-dimethyl-2H-benzo[h]chromene-5-carboxylate]: the IC50 was over 10 µM.
